The record followed here is patent publication US4476328A, “Process for producing 3,3,3-trifluoropropyl substituted phenol” (Kureha Kagaku Kogyo Kabushiki Kaisha, priority 1980, dated 1984).

The series is described as follows: electrical properties (dielectric constant, dielectric loss, volume resistivity). In kind it is physicochemical.
Setting [1] is: Table 5, Example 6, temperature not given.

Take “n-octyl-( 3,3,3-trifluoropropyl)benzene [n-octyl(3,3,3-trifluoropropyl)benzene]”: under setting [1], the Dielectric constant came out at 4.18, the “Dielectric loss (tanδ)” value is reported as 0.095% and the Volume resistivity is on record as 1.08 × 10^14 Ω·cm. Where the note is “Table 6, Example 7, at 20° C.”, the Dielectric constant is given as 3.89, the “Dielectric loss (tanδ)” value is 0.015% and the Volume resistivity is 8.79 × 10^14 Ω·cm.
